Source: US20200031866A1, “PEPTIDE INHIBITORS OF SODIUM CHANNELS” (SPYRYX BIOSCIENCES, INC., priority 2016, published 2020)
Square brackets hold non-standard residues; d marks the D form. Peptide text beside a SMILES is read from it.

Test system: tracheal mucus velocity (TMV) in sheep
Experiment: CFTRinh-172-induced slowing of tracheal mucus velocity (TMV) in sheep
Type: in vivo
Settings: for average TMV response between 5-12h: mean±se, 3 sheep/group, saline 50±0.5%
Description: All procedures used were approved by the Mount Sinai Medical Center Animal Research Committee. The sheep were conscious and intubated for these studies. All instrumentation was performed under local anesthesia. After topical anesthesia of the nasal passages with 2% lidocaine solution, the sheep were nasally intubated, with an endotracheal tube […] in diameter (Mallinckrodt Med Inc., St. Louis, Mo.) shortened by 6 cm. The cuff of the tube was placed just below the vocal cords (verified by fluoroscopy) to allow for maximal exposure of the tracheal surface area. The inspired air was warmed and humidified using a Bennett Humidifier (Puritan-Bennett, Lenexa, Kans.). To minimize possible impairment of TMV caused by the inflated cuff, the endotracheal tube cuff remained deflated throughout the study except for the period of drug delivery.
TMV was measured in vivo by a roentgenographic technique. Between 8 and 10 radiopaque Teflon/bismuth trioxide disks, 1-mm diameter, 0.8-mm thick and 1.5-2 mg in weight, were insufflated onto the trachea. A modified suction catheter connected to a source of continuous compressed air at a flow of 3-4 L/min was used to introduce the particles via the endotracheal tube. The catheter remained within the endotracheal tube only during particle delivery, so that no contact with the tracheal surface is made. The cephalad-axial velocities of the individual disks were recorded on videotape from a portable image intensifier unit. Individual disk velocities were calculated by measuring the distance traveled by each disk during a 1-min observation period. For each run, the mean value of all individual disk velocities was calculated. A collar containing radiopaque reference markers of known length was worn by the sheep, and used as a standard to correct for magnification effects inherent in the fluoroscopy unit.
Aerosols were generated using an Airlife medication nebulizer. To control aerosol delivery a dosimetry system activated by a piston respirator (Harvard Apparatus Respiratory Pump, Holliston, Mass.) was used. The nebulizer was connected to a T-piece with one end attached to the respiratory pump and the other to the animal's tracheal tube. Nebulized aerosols were delivered directly into the trachea only during inspiration at a frequency of 20 breaths/min and at a tidal volume of 500 mL.
Ten (10) mg of CFTRinh-172 was dissolved in 0.3 mL of DMSO. The solution was vortexed and then 2.7 mL of ethanol was added bringing the final nebulized solution of CFTRinh to 10 mg/3 mL. […]
After a 10 minute period on the humidifier, a baseline TMV was obtained Immediately following the baseline, the sheep were challenged with an aerosol of 10 mg of CFTRinh. TMV was measured hourly for 4h. […] TMV was then measured from 5-12h following treatment. […]

For `CC[C@H](C)[C@H](NC(=O)[C@@H]1CCCN1C(=O)[C@H](CC(C)C)NC(=O)[C@@H](C)NC(=O)[C@@H](C)N)C(=O)N1CCC[C@H]1C(=O)N[C@@H](CC(C)C)C(=O)N[C@@H](CC(=O)O)C(=O)N[C@@H](CCC(N)=O)C(=O)N[C@H](C(=O)N[C@H](C)C(=O)N[C@H](C)C(N)=O)[C@@H](C)O` [SEQ ID NO:128, aaLPIPLDQTaa] (H-[dA][dA]LPIPLDQT[dA][dA]-NH2), the “average TMV response between 5-12h” value (1 mg/kg nebulized 4 h after 10 mg CFTRinh) was 73.7±0.7%, the “average TMV response between 5-12h” value (2 mg/kg nebulized 4 h after 10 mg CFTRinh) was 88.4±0.6% and the “average TMV response between 5-12h” value (4 mg/kg nebulized 4 h after 10 mg CFTRinh) was 103.0±0.6%. For the same molecule, the “reversal of CFTRinh-induced slowing of TMV” value (reversal dose dependent, FIGS. 8A-8C) was “can reverse CFTRinh-induced slowing of TMV”.
